Laboratory results: patent publication US20080070868A1, “Novel Thiazole Inhibitors of Fructose 1,6-bisphosphatase” (Metabasis Therapeutics, Inc., priority 2004, published 2008)
“Also recorded” adds a separate entry of the source. Where two headings read alike, the source gives them in different places.

How the values were obtained:
human liver FBPase = biological target: T1, human liver FBPase (Homo sapiens, UniProt P09467); assay: Inhibition of human liver FBPase; type: biochemical; conditions: purified recombinant human liver FBPase, 0.150 mM fructose 1,6-bisphosphate, 37° C.; read-out: IC50 (hlFBPase)
T1 construct: made in house; host or cells: E. coli BL21
T1 sequence (P09467 2-338 limits assumed): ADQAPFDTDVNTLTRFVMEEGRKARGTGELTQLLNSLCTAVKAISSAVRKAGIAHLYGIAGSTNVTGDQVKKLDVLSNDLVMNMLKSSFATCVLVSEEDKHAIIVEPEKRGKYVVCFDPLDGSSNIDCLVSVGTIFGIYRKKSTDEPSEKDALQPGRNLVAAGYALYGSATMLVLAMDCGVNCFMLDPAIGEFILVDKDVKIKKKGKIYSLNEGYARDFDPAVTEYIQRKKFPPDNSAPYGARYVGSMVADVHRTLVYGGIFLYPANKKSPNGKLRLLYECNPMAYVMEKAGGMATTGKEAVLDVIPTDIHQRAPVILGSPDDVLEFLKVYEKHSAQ
Method: E. coli strain BL21 transformed with a human liver FBPase-encoding plasmid was obtained from Dr. M. R. El-Maghrabi at the State University of New York at Stony Brook. […] Enzymatic activity was measured spectrophotometrically in reactions that coupled the formation of product (fructose 6-phosphate) to the reduction of dimethylthiazoldiphenyltetrazolium bromide (MTT) via NADP^+ and phenazine methosulfate (PMS), using phosphoglucose isomerase and glucose 6-phosphate dehydrogenase as the coupling enzymes. Reaction mixtures (200 μl) were made up in 96-well microtitre plates, and consisted of 50 mM Tris-HCl, pH 7.4, 100 mM KCl, 5 mM EGTA, 2 mM MgCl2, 0.2 mM NADP, 1 mg/ml BSA, 1 mM MTT, 0.6 mM PMS, 1 unit/ml phosphoglucose isomerase, 2 units/ml glucose 6-phosphate dehydrogenase, and 0.150 mM substrate (fructose 1,6-bisphosphate). Inhibitor concentrations were varied from 0.01 μM to 10 μM. Reactions were started by the addition of 0.002 units of pure hlFBPase, and were monitored for 7 min. at 590 nm in a Molecular Devices Plate Reader (37° C.).

human NAT1 = biological target: T2, human NAT1 (Homo sapiens, UniProt P18440); assay: N-acetylation by recombinant human NAT1; type: in vitro ADME; conditions: for % Conversion NAT1: compound 100 μM, 37° C., 120 min, N-acyl product by HPLC; for susceptibility to N-acetylation by NAT1, in words: human recombinant NAT1
T2 construct: purchased BD Gentest (Bedford, Mass.); host or cells: insect cells
T2 sequence (P18440 1-290): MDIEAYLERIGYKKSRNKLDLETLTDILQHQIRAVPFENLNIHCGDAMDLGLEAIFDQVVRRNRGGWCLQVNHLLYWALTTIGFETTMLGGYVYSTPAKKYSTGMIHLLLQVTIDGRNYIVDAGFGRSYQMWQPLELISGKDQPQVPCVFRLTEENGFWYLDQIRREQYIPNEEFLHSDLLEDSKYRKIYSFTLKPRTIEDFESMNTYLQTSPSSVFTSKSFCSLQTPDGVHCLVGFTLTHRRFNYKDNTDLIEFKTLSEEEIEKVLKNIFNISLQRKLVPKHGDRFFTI
Method: (§1) Insect cell-expressed human NAT1 and NAT2 and control insect cytosol were obtained from BD Gentest (Bedford, Mass.). Compounds (100 μM) were incubated in 0.25 mL of NAT reaction cocktail consisting of 25 mM potassium phosphate pH 7.4 (at 25° C.), 1 mM EDTA, 1 mM DTT, 0.5 mM acetyl CoA, 5 mM acetyl-DL-carnitine, 20 u/mL acetyltransferase and either NAT1, NAT2 or control insect cytosol (0.1 mg/mL). Reactions were performed in an Eppendorf Thermomixer (37° C., 120 min.). At 0 and 120 min., 100 μl of each reaction was removed and added to a clean 1.7 mL tube containing 150 μl of 100% methanol. The tubes were vortexed and centrifuged at 14,000 rpm for 10 min. in an Eppendorf microcentrifuge (room temperature, 5 min., 14,000 rpm). The supernatants were analyzed by HPLC (Agilent 1100 series) using a Phenosphere C18 column (5 micron, 150×4.6 mm). The column was equilibrated with 20 mM potassium phosphate pH 4.5 or pH 6.2 (at 25° C.) and eluted with a linear gradient to 80% acetonitrile. The percent conversion of the compounds was calculated from the following equation: area of N-acyl product divided by (area of compound+area of N-acyl product), multiplied by 100.

rat liver FBPase = biological target: T3, rat liver FBPase (Rattus norvegicus, UniProt P19112); assay: Inhibition of rat liver FBPase; type: biochemical; conditions: partially purified rat liver FBPase; read-out: IC50 (rlFBPase)
T3 construct: This partially purified fraction was used for enzyme assays; from tissue; host or cells: rat liver (45-75% ammonium sulfate fraction of the homogenate)
T3 sequence (P19112 2-363 limits assumed): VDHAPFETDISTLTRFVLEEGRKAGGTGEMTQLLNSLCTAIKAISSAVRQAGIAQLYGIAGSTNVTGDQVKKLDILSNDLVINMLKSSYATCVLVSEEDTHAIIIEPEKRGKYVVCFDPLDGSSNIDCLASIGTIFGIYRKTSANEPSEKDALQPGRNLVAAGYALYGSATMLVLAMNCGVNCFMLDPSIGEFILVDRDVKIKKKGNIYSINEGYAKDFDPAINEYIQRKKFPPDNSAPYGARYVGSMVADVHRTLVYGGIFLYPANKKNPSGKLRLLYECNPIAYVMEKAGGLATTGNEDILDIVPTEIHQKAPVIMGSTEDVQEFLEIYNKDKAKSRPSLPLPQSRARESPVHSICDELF
Method: Rat liver FBPase was obtained by homogenizing freshly isolated rat liver in 100 mM Tris-HCl buffer, pH 7.4, containing 1 mM EGTA, and 10% glycerol. The homogenate was clarified by centrifugation, and the 45-75% ammonium sulfate fraction prepared. This fraction was redissolved in the homogenization buffer and desalted on a PD-10 gel filtration column (Biorad) eluted with same. This partially purified fraction was used for enzyme assays.

human NAT2 [1] = biological target: T4, human NAT2 (Homo sapiens, UniProt P11245); conditions: human, 120 min, 100 μM, pH 7.4
T4 sequence (P11245 1-290): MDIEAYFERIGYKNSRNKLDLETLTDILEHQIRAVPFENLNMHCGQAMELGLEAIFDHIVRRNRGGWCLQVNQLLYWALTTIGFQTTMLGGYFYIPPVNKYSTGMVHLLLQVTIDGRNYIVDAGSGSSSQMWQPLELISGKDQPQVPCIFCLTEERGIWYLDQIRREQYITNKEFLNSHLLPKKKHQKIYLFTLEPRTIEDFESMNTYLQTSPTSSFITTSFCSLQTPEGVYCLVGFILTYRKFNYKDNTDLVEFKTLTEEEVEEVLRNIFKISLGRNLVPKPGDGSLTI
Method: as §1

[2] = Variability of N-acetylation in human liver S9 fractions; type: in vitro ADME; conditions: 100 μM, S9 10 mg/mL protein; donors with high or low N-acetylase activity
Method: The reactions are incubated, processed, and analyzed as described in Example C.

human NAT2 [3] = biological target: T4, human NAT2; assay: N-acetylation by recombinant human NAT2
Method: as §1

| Compound | IC50 (human liver FBPase) | % Conversion NAT1 (human NAT1) | susceptibility to N-acetylation by NAT1, in words (human NAT1) | IC50 (rat liver FBPase) | % Conversion NAT2 (human NAT2 [1]) | conversion to N-acetylated metabolite in human liver S9 from various donors [2] | % Conversion NAT2 (human NAT2 [3]; compound 100 μM, 37° C., 120 min, N-acyl product by HPLC) | susceptibility to N-acetylation by NAT2, in words (human NAT2 [3]; human recombinant NAT2) |
| --- | --- | --- | --- | --- | --- | --- | --- | --- |
| CC(C)(C)Cc1sc(N)nc1-c1ccc(P(=O)(O)O)o1 [Compound 3.1, reference compound] | 12 nM | 22.4% | highly susceptible | 92 nM | – | – | – | – |
| CC(C)Cc1sc(N)nc1-c1ccc(P(=O)(O)O)o1 [Compound 3.6, reference compound] | – | 51% | highly susceptible | 140 nM | 5.9% | high levels | – | – |
| CC(C)(C)C(=O)c1sc(N)nc1-c1ccc(P(=O)(O)O)o1 [Compound 1.1, {5-[2-amino-5-(2,2-dimethylpropionyl)thiazol-4-yl]-furan-2-yl}phosphonic acid] | 31 nM | 0% | not metabolized; also recorded: insusceptible | 189 nM | – | no conversion | 0% | insusceptible |
